Patent publication US20240246931A1, “COMPOUNDS AS PD1/PD-L1 INHIBITORS AND METHODS THEREOF” (JUBILANT PRODEL LLC, priority 2021, published 2024)

Assays:
[1] = target: T1, PD-1/PD-L1 interaction (Homo sapiens, UniProt Q9NZQ7); assay: PD-1/PD-L1 HTRF binding assay (CisBio kit); conditions: HTRF PD1/PD-L1 inhibition assay
T1 construct: purchased CisBio 63ADK000CPAPEG
How it was run: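 HTRF kit assay: compound was preincubated 15 min with tagged PD-L1 and PD-1 proteins, then Eu-cryptate and XL665 anti-tag antibodies were added for 1 h at room temperature. Readout was the 665/620 nm ratio ×10^4. IC50 was binned as A <100 nM, B 100–500 nM, C >500 nM.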

[2] = Metabolic stability in human liver microsomes; assay type: in vitro ADME; conditions: human liver microsomes 1.0 mg/mL, compound 1 μM, NADPH, first number of HLM/MLM cell
Excerpt: (§1) Metabolic Stability in Liver Microsomes
(§2) The purpose of this experiment is to measure the metabolic half-life of NCEs in sub-cellular fractions such as human liver microsomes (HLM) or mouse liver microsomes (MLM). This provides an in vitro means to calculate intrinsic hepatic clearance, and to support the prediction of human pharmacokinetics. This approach has been successfully utilized at early phase of drug discovery projects, to provide SAR input for reducing metabolic instability and for predicting in vivo hepatic clearance.
(§3) Procedure: Potassium phosphate buffer (66.7 mM, pH 7.4) containing liver microsomes (mouse and human) (1.0 mg/mL) was pre-incubated separately with compound (1 μM) and positive control (verapamil, 1 μM) in a 37° C. water bath for 5 min. The reactions were initiated by adding 20 μL of 10 mM NADPH. Reactions without NADPH (0 and 30 min) were also incubated to rule out non-NADPH metabolism or chemical instability in the incubation buffer. All reactions were terminated using 200 μL of ice-cold acetonitrile containing internal standard at 0, 5, 15 and 30 min. The vials were centrifuged at 3000 rpm for 15 min. The supernatants thus obtained were analyzed on LC-MS/MS to monitor the disappearance of test compound.

[3] = Metabolic stability in mouse liver microsomes; assay type: in vitro ADME; conditions: mouse liver microsomes 1.0 mg/mL, compound 1 μM, NADPH, second number of HLM/MLM cell
Excerpt: as §1, §2, §3

T1 sequence (Q9NZQ7 19-238 limits assumed): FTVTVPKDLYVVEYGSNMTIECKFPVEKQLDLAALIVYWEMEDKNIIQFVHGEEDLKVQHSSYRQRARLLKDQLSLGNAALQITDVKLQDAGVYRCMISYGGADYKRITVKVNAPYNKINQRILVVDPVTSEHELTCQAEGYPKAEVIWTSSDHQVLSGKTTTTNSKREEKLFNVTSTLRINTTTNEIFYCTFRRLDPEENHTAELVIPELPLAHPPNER

## Cc1c(COc2cc(OCc3cncc(C#N)c3)c(CN3CCCC4CC43CO)c3c2CCC3)cccc1-c1ccccc1 (stereo not drawn) [Example 35, 5-(((4-((1-(hydroxymethyl)-2-azabicyclo[4.1.0]heptan-2-yl)methyl)-7-((2-methyl-[1,1′-biphenyl]-3-yl)methoxy)-2,3-dihydro-1H-inden-5-yl)oxy)methyl)nicotinonitrile]
[1]
  IC50: < 0.1 µM
[2]
  HLM % remaining @ 30 min: 3/3%
[3]
  MLM % remaining @ 30 min: 3/3%

## Cc1c(COc2cc(OCCCCCF)c(CN3CCCC[C@H]3CO)c3c2CCC3)cccc1-c1ccccc1 [Example 30, (S)-(1-((5-((5-fluoropentyl)oxy)-7-((2-methyl-[1,1′-biphenyl]-3-yl)methoxy)-2,3-dihydro-1H-inden-4-yl)methyl)piperidin-2-yl)methanol]
[1]
  IC50: < 0.1 µM
[2]
  HLM % remaining @ 30 min: 57%
[3]
  MLM % remaining @ 30 min: 74%

## N#Cc1cncc(COc2cc(OCc3cccc(-c4ccccc4)c3C#N)c3c(c2CN2CCC[C@H]2CO)CCC3)c1 [Example 3, (S)-5-(((7-((2-cyano-[1,1′-biphenyl]-3-yl)methoxy)-4-((2-(hydroxymethyl)pyrrolidin-1-yl)methyl)-2,3-dihydro-1H-inden-5-yl)oxy)methyl)nicotinonitrile]
[1]
  IC50: < 0.1 µM
[2]
  HLM % remaining @ 30 min: 22%
[3]
  MLM % remaining @ 30 min: 14%

## Cc1c(COc2cc(OCc3cncc(C#N)c3)c(CN3C[C@H](O)C[C@H]3CO)c3c2CCC3)cccc1-c1ccccc1 [Example 6]
[1]
  IC50: < 0.1 µM
[2]
  HLM % remaining @ 30 min: 67%
[3]
  MLM % remaining @ 30 min: 87%

## Cc1c(COc2cc(OCc3cccc(C#N)c3)c(CN3CCC[C@H]3CO)c3c2CCC3)cccc1-c1ccccc1 [Example 7, (S)-3-(((4-((2-(hydroxymethyl)pyrrolidin-1-yl)methyl)-7-((2-methyl-[1,1′-biphenyl]-3-yl)methoxy)-2,3-dihydro-1H-inden-5-yl)oxy)methyl)benzonitrile]
[1]
  IC50: < 0.1 µM
[2]
  HLM % remaining @ 30 min: 66%
[3]
  MLM % remaining @ 30 min: 76%

## Cc1c(COc2cc(OCc3cccc(C#N)c3)c(CN3CCCC4CC43CO)c3c2CCC3)cccc1-c1ccccc1 (stereo not drawn) [Example 34, 3-(((4-((1-(hydroxymethyl)-2-azabicyclo[4.1.0]heptan-2-yl)methyl)-7-((2-methyl-[1,1′-biphenyl]-3-yl)methoxy)-2,3-dihydro-1H-inden-5-yl)oxy)methyl)benzonitrile]
[1]
  IC50: < 0.1 µM
[2]
  HLM % remaining @ 30 min: 8%
[3]
  MLM % remaining @ 30 min: 5%

## Cc1c(COc2cc(OCc3cc(C#N)c[n+]([O-])c3)c(CN3CCC[C@H]3CO)c3c2CCC3)cccc1-c1ccccc1 [Example 44, (S)-3-cyano-5-(((4-((2-(hydroxymethyl)pyrrolidin-1-yl)methyl)-7-((2-methyl-[1,1′-biphenyl]-3-yl)methoxy)-2,3-dihydro-1H-inden-5-yl)oxy)methyl)pyridine 1-oxide]
[1]
  IC50: < 0.1 µM
[2]
  HLM % remaining @ 30 min: 33%
[3]
  MLM % remaining @ 30 min: 15%

## Cc1c(COc2cc(OCc3cncc(C#N)c3)c(CN3CCCC[C@H]3CO)c3c2CCC3)cccc1-c1ccccc1 [Example 1, (S)-5-(((4-((2-(hydroxymethyl)piperidin-1-yl)methyl)-7-((2-methyl-[1,1′-biphenyl]-3-yl)methoxy)-2,3-dihydro-1H-inden-5-yl)oxy)methyl)nicotinonitrile]
[1]
  IC50: < 0.1 µM
[2]
  HLM % remaining @ 30 min: 72%
[3]
  MLM % remaining @ 30 min: 83%

## Cc1c(COc2cc(OCc3cncc(C#N)c3)c(CN3CCOC[C@H]3CO)c3c2CCC3)cccc1-c1ccccc1 [Example 9, (R)-5-(((4-((3-(hydroxymethyl)morpholino)methyl)-7-((2-methyl-[1,1′-biphenyl]-3-yl)methoxy)-2,3-dihydro-1H-inden-5-yl)oxy)methyl)nicotinonitrile]
[1]
  IC50: < 0.1 µM
[2]
  HLM % remaining @ 30 min: 8%
[3]
  MLM % remaining @ 30 min: 21%

## N#Cc1cccc(COc2cc(OCc3cccc(-c4ccccc4)c3C#N)c3c(c2CN2CCC[C@H]2CO)CCC3)c1 [Example 4, (S)-3-(((6-((3-cyanobenzyl)oxy)-7-((2-(hydroxymethyl)pyrrolidin-1-yl)methyl)-2,3-dihydro-1H-inden-4-yl)oxy)methyl)-[1,1′-biphenyl]-2-carbonitrile]
[1]
  IC50: < 0.1 µM
[2]
  HLM % remaining @ 30 min: 20/20%
[3]
  MLM % remaining @ 30 min: 20/20%

## Cc1c(COc2cc(OCc3cccc(C#N)c3)c(CN3CCCC[C@H]3CO)c3c2CCC3)cccc1-c1ccccc1 [Example 2, (S)-3-(((4-((2-(hydroxymethyl)piperidin-1-yl)methyl)-7-((2-methyl-[1,1′-biphenyl]-3-yl)methoxy)-2,3-dihydro-1H-inden-5-yl)oxy)methyl)benzonitrile]
[1]
  IC50: < 0.1 µM
[2]
  HLM % remaining @ 30 min: 58%
[3]
  MLM % remaining @ 30 min: 62%

## N#Cc1c(COc2cc(OCC(F)(F)F)c(CN3CCCC[C@H]3CO)c3c2CCC3)cccc1-c1ccccc1 [Example 23, (S)-3-(((7-((2-(hydroxymethyl)piperidin-1-yl)methyl)-6-(2,2,2-trifluoroethoxy)-2,3-dihydro-1H-inden-4-yl)oxy)methyl)-[1,1′-biphenyl]-2-carbonitrile]
[1]
  IC50: < 0.1 µM
[2]
  HLM % remaining @ 30 min: 27%
[3]
  MLM % remaining @ 30 min: 25%

## N#Cc1c(COc2cc(OCCF)c(CN3CCCC[C@H]3CO)c3c2CCC3)cccc1-c1ccccc1 [Example 29, (S)-3-(((6-(2-fluoroethoxy)-7-((2-(hydroxymethyl)piperidin-1-yl)methyl)-2,3-dihydro-1H-inden-4-yl)oxy)methyl)-[1,1′-biphenyl]-2-carbonitrile]
[1]
  IC50: < 0.1 µM
[2]
  HLM % remaining @ 30 min: 56%
[3]
  MLM % remaining @ 30 min: 71%

## N#Cc1cncc(COc2cc(OCc3cccc(-c4ccccc4)c3C#N)c3c(c2CN2CC4(CC4)C[C@H]2CO)CCC3)c1 [Example 26, (S)-5-(((7-((2-cyano-[1,1′-biphenyl]-3-yl)methoxy)-4-((6-(hydroxymethyl)-5-azaspiro[2.4]heptan-5-yl)methyl)-2,3-dihydro-1H-inden-5-yl)oxy)methyl)nicotinonitrile]
[1]
  IC50: < 0.1 µM
[2]
  HLM % remaining @ 30 min: 6%
[3]
  MLM % remaining @ 30 min: 5%

## Cc1c(COc2cc(OCCCF)c(CN3CCCC[C@H]3CO)c3c2CCC3)cccc1-c1ccccc1 [Example 32, (S)-(1-((5-(3-fluoropropoxy)-7-((2-methyl-[1,1′-biphenyl]-3-yl)methoxy)-2,3-dihydro-1H-inden-4-yl)methyl)piperidin-2-yl)methanol]
[1]
  IC50: < 0.1 µM
[2]
  HLM % remaining @ 30 min: 81%
[3]
  MLM % remaining @ 30 min: 84%

## Cc1c(COc2cc(OCc3cncc(C(N)=O)c3)c(CN3CCCC[C@H]3CO)c3c2CCC3)cccc1-c1ccccc1 [Example 37, (S)-5-(((4-((2-(hydroxymethyl)piperidin-1-yl)methyl)-7-((2-methyl-[1,1′-biphenyl]-3-yl)methoxy)-2,3-dihydro-1H-inden-5-yl)oxy)methyl)nicotinamide]
[1]
  IC50: < 0.1 µM
[2]
  HLM % remaining @ 30 min: 86%
[3]
  MLM % remaining @ 30 min: 88%

## Cc1c(COc2cc(OCC(F)(F)F)c(CN3CCCC[C@H]3CO)c3c2CCC3)cccc1-c1ccccc1 [Example 24, (S)-(1-((7-((2-methyl-[1,1′-biphenyl]-3-yl)methoxy)-5-(2,2,2-trifluoroethoxy)-2,3-dihydro-1H-inden-4-yl)methyl)piperidin-2-yl)methanol]
[1]
  IC50: < 0.1 µM
[2]
  HLM % remaining @ 30 min: 72%
[3]
  MLM % remaining @ 30 min: 67%

## Cc1c(COc2cc(OCc3cncc(C#N)c3)c(CN3CCC[C@H]3CO)c3c2CCC3)cccc1-c1ccccc1 [Example 8, (S)-5-(((4-((2-(hydroxymethyl)pyrrolidin-1-yl)methyl)-7-((2-methyl-[1,1′-biphenyl]-3-yl)methoxy)-2,3-dihydro-1H-inden-5-yl)oxy)methyl)nicotinonitrile]
[1]
  IC50: < 0.1 µM
[2]
  HLM % remaining @ 30 min: 61%
[3]
  MLM % remaining @ 30 min: 85%
